ChEMBL document CHEMBL1122692, “Catechol derivatives of 6-aminobenzocycloheptene: assessment of dopaminergic effects” (1984)

Columns and labels:
Type in all cases: functional
Felis catus [1] = assay: Compound was evaluated for the biological activity (pressure) in anesthetized cats at a dose of 40 ug/kg
Felis catus [2] = assay: Compound was evaluated for the biological activity (pressure) in anesthetized cats at a dose of 10 ug/kg
Felis catus [3] = assay: Compound was evaluated for the biological activity (pressure) in anesthetized cats at a dose of 20 ug/kg

SMILES: NC1CCCc2c(ccc(O)c2O)C1 (stereo not drawn)
- Pressure (Felis catus [1]): 70 mmHg
- Pressure (Felis catus [2]): 15 mmHg
- Pressure (Felis catus [3]): 38 mmHg
